Assay results published in ChEMBL document CHEMBL4418499, “Inhibitors of trim33 and methods of use” (2018).

Legend:
[1] = target: T1, E3 ubiquitin-protein ligase TRIM33 (Homo sapiens, UniProt Q9UPN9); assay: Inhibition of recombinant TRIM33 PHD bromodomain (unknown origin) using biotinylated H3 peptide (H3K9me3K18ac) by AlphaScreen assay
T1 sequence (Q9UPN9 whole entry): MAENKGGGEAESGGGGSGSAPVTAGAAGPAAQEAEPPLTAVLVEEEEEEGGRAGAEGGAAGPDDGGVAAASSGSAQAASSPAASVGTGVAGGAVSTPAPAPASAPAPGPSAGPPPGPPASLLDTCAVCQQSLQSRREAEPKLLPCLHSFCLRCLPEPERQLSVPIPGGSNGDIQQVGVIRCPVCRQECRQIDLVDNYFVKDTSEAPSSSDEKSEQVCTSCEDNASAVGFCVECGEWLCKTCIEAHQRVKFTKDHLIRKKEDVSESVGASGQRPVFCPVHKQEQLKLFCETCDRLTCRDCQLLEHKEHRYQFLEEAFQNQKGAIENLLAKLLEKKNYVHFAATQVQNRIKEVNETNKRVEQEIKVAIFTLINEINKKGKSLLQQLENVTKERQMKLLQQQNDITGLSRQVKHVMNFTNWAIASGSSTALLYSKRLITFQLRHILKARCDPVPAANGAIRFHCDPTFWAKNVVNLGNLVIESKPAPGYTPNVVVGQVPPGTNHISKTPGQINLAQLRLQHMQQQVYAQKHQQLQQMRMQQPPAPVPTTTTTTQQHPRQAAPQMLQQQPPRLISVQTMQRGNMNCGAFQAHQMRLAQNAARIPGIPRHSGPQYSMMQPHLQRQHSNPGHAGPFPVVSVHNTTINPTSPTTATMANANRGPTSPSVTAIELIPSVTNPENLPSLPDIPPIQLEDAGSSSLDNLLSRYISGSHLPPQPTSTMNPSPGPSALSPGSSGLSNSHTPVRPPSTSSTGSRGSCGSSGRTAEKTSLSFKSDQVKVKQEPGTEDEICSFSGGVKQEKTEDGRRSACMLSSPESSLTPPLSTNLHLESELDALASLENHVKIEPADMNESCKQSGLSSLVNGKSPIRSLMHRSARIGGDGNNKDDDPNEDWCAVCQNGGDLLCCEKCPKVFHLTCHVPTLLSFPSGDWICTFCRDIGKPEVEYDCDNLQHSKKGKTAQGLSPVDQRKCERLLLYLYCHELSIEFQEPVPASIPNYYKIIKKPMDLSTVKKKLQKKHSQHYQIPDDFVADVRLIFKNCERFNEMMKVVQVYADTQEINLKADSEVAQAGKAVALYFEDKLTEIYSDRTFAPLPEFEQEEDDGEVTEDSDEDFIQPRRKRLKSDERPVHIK

[2] = target: T2, Transcription intermediary factor 1-alpha (Homo sapiens, UniProt O15164); assay: Inhibition of recombinant TRIM24 (unknown origin) using biotinylated H3 peptide (H3K9me3K18ac) by AlphaScreen assay
T2 sequence (O15164 whole entry): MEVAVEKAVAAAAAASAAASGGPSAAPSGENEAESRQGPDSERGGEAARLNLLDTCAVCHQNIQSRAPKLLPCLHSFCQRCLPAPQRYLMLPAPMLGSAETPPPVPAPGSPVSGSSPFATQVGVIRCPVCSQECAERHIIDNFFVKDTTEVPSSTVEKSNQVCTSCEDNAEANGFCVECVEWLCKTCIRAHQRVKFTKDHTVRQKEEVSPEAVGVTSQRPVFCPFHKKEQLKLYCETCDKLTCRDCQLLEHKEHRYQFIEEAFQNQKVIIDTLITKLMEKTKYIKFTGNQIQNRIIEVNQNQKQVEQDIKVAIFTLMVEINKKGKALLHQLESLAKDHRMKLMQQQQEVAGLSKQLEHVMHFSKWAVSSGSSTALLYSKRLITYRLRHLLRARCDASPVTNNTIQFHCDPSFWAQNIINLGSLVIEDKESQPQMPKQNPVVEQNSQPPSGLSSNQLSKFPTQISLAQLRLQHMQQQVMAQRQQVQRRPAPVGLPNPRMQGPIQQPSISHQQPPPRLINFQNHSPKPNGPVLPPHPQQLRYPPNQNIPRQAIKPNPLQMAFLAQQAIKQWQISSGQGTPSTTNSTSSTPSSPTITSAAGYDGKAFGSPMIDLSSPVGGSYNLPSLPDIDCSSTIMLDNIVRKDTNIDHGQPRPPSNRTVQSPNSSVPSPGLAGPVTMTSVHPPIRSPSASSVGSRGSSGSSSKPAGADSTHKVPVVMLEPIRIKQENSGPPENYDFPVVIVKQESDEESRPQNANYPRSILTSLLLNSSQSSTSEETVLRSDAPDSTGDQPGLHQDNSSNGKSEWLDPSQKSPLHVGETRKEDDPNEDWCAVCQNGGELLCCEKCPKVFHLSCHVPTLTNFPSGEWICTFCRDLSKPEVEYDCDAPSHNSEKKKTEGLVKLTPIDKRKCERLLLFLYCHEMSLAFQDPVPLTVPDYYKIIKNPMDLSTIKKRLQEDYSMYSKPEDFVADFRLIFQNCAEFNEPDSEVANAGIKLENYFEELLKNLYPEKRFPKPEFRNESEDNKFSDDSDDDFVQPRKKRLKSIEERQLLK

Homo sapiens = species on record: Homo sapiens; assay: Selectivity index, ratio of IC50 for recombinant TRIM24 (unknown origin) to IC50 for recombinant TRIM33 PHD bromodomain (unknown origin)

Row | SMILES | IC50 [1] [µM] | IC50 [2] [µM] | Ratio IC50 (Homo sapiens)
1 | CCCOc1ccn2c(C(C)=O)cc(-c3nc4cnccn4c3NCc3ccc(C#N)cc3)c2c1 | 66 | 819 | 12.4
2 | COCCNc1c(-c2ccc3nccn3c2)nc2ccccn12 | 139 | 5800 | 41.7
3 | Cc1nc(-c2nc3cnccn3c2NCc2ccc(C#N)cc2)c[nH]1 | 207 | 54.8 | 0.26
4 | Cc1[nH]cnc1-c1nc2cnccn2c1NCc1ccc(C#N)cc1 | 121 | 98.4 | 0.82
5 | COC(=O)c1ccc2nc(-c3c[nH]c(C)n3)c(NCCN3CCOCC3)n2c1 | 71.4 | 2870 | 40.3
6 | COC(=O)c1ccc2nc(-c3nc[nH]c3C)c(Nc3ccc(OC)cc3)n2c1 | 19.3 | 77.2 | 3.99
7 | COC(=O)c1ccc2nc(-c3c[nH]c(C)n3)c(Nc3ccc(OC)cc3)n2c1 | 8.57 | 111 | 13
8 | COc1ccc(CCNc2c(-c3nc[nH]c3C)nc3ccccn23)cc1OC | 1.36 | 31.7 | 23.2
9 | c1ccn2c(NC3CCCCC3)c(-c3ccc4nccn4c3)nc2c1 | 13.8 | 249 | 18.1
10 | Cc1nc(-c2nc3ccc(Br)cn3c2NC2CCCCC2)c[nH]1 | 3.6 | 13 | 3.62
11 | COc1ccc(Nc2c(-c3nc[nH]c3C)nc3cnccn23)cc1 | 14.7 | 7.32 | 0.5
12 | COCCNc1c(-c2nc[nH]c2C)nc2ccccn12 | 16.3 | 35.4 | 2.17
13 | N#Cc1ccc(CNc2c(-c3ccc4nccn4c3)nc3ccccn23)cc1 | 87.4 | 2080 | 23.8
14 | COc1ccc(Nc2c(-c3ccc4nccn4c3)nc3ccccn23)cc1 | 26 | 153 | 5.88
15 | CCCOc1ccn2c(C(C)=O)cc(-c3nc4cnccn4c3Nc3ccc(OC)cc3)c2c1 | 38.5 | 226 | 5.87
16 | Cc1nc(-c2nc3ccccn3c2NCc2ccc(C#N)cc2)c[nH]1 | 26.8 | 267 | 9.97
17 | COCCNc1c(-c2ccc3nccn3c2)nc2cnccn12 | 190 | 5450 | 28.6
18 | Cc1nc(-c2nc3cnccn3c2NCCN2CCOCC2)c[nH]1 | 131 | 1890 | 14.5

Row | SMILES | IC50 [1] [µM] | IC50 [2] [µM] | Ratio IC50 (Homo sapiens)
19 | Cc1[nH]cnc1-c1nc2ccccn2c1NCc1ccc(C#N)cc1 | 16.4 | 42.8 | 2.61
20 | COC(=O)c1ccc2nc(-c3ccc4nccn4c3)c(NCCc3ccc(OC)c(OC)c3)n2c1 | 15.7 | 5980 | 380
21 | Cc1[nH]cnc1-c1nc2cnccn2c1NCCN1CCOCC1 | 71 | 119 | 1.67
22 | c1cn2c(NCCN3CCOCC3)c(-c3ccc4nccn4c3)nc2cn1 | 259 | 2190 | 8.45
23 | COC(=O)c1ccc2nc(-c3ccc4nccn4c3)c(Nc3ccc(OC)cc3)n2c1 | 22.2 | 375 | 16.9
24 | Cc1[nH]cnc1-c1nc2ccc(Br)cn2c1NC1CCCCC1 | 1.03 | 8.48 | 8.27
25 | Cc1[nH]cnc1-c1nc2ccc(Br)cn2c1NCc1ccc(C#N)cc1 | 10.1 | 29.3 | 2.91
26 | COCCNc1c(-c2c[nH]c(C)n2)nc2ccc(Br)cn12 | 7.88 | 243 | 30.8
27 | COC(=O)c1ccc2nc(-c3c[nH]c(C)n3)c(NC3CCCCC3)n2c1 | 18.9 | 180 | 9.48
28 | CCCOc1ccn2c(C(C)=O)cc(-c3nc4ccccn4c3NCCN3CCOCC3)c2c1 | 69.6 | 250 | 3.6
29 | Cc1nc(-c2nc3ccc(Br)cn3c2NCCN2CCOCC2)c[nH]1 | 450 | 194 | 0.43
30 | CCCOc1ccn2c(C(C)=O)cc(-c3nc4ccc(C(=O)OC)cn4c3NCCN3CCOCC3)c2c1 | 95.6 | 1040 | 10.9
31 | COCCNc1c(-c2c[nH]c(C)n2)nc2ccccn12 | 17.2 | 141 | 8.16
32 | CCCOc1ccn2c(C(C)=O)cc(-c3nc4ccccn4c3NCCc3ccc(OC)c(OC)c3)c2c1 | 21.7 | 372 | 17.1
33 | COc1ccc(Nc2c(-c3ccc4nccn4c3)nc3cnccn23)cc1 | 38.3 | 88.3 | 2.3
34 | COc1ccc(CCNc2c(-c3ccc4nccn4c3)nc3ccc(Br)cn23)cc1OC | 20.4 | 283 | 13.9
35 | CCCOc1ccn2c(C(C)=O)cc(-c3nc4ccccn4c3Nc3ccc(OC)cc3)c2c1 | 9.6 | 159 | 16.6
36 | CCCOc1ccn2c(C(C)=O)cc(-c3nc4ccc(C(=O)OC)cn4c3Nc3ccc(OC)cc3)c2c1 | 48.6 | 355 | 7.3
